One data set has as its target T1, TLR-2 (Mus musculus, UniProt Q9EPQ1+Q9QUN7).
T1 construct: endogenous in cells; host or cells: RAW264.7 NF-kB reporter cells
Description: RAW264.7 NF-κB reporter cell assay. It is filed as cell-based. The conditions noted are these: incorporated into the PEG-EBP vesicle membrane, versus free Pam3CSK4. From the text: PEG-EBP polymer vesicles were also shown to serve as a carrier for agonists of pattern recognition receptors (PRRs) that reside on the cell surface. […] The reduced activity of Pam3CSK4 incorporated into vesicles is thought to be primarily related to the ˜50% of Pam3CSK4 molecules that are incorporated into the inner leaflet of the vesicle membrane, and therefore are not accessible for binding to cell surface TLR-2 molecules.

The nature of data set [1]: Encapsulation efficiency of cargo in PEG-EBP polymer vesicles. The note with it: cGAMP within PEG-EBP vesicles; high performance liquid chromatography.
Description: Encapsulation efficiency is defined as the percentage of cargo associated with the vesicle after cargo loading and separation of vesicles from unencapsulated cargo. N=number of experiments performed for a specific cargo type.
For formulation of polymeric vesicles, 5 mg of the polymer is mixed with 4 μL of ethanol. Upon equilibration, 4 μL of cGAMP solution (0-50 mg/mL in water) is added to the polymer/ethanol gel. […] Upon formation of vesicles, the colloid is diluted into water and sonicated further to generate the PEG-EBP encapsulated cGAMP colloid.
Solvent composition and stepwise addition amounts were chosen to maximize the vesicle yield of the formulation process while maximizing encapsulant concentration during vesicle self-assembly. […] Particles were crosslinked post assembly via addition of 0.5 molar equivalents of DTT relative to pyidyl disulfide moieties comprising the PEG-EBP colloid. Nanoparticles were readily separated from free cGAMP and crosslinking byproducts via centrifugal ultrafiltration using a 10 kDa cutoff.
Pyridyl disulfide (PDS) moieties were exploited for post-assembly in situ crosslinking of the vesicle membrane via partial reduction of disulfide bonds with DTT.

T1 sequence (Q9QUN7 25-784): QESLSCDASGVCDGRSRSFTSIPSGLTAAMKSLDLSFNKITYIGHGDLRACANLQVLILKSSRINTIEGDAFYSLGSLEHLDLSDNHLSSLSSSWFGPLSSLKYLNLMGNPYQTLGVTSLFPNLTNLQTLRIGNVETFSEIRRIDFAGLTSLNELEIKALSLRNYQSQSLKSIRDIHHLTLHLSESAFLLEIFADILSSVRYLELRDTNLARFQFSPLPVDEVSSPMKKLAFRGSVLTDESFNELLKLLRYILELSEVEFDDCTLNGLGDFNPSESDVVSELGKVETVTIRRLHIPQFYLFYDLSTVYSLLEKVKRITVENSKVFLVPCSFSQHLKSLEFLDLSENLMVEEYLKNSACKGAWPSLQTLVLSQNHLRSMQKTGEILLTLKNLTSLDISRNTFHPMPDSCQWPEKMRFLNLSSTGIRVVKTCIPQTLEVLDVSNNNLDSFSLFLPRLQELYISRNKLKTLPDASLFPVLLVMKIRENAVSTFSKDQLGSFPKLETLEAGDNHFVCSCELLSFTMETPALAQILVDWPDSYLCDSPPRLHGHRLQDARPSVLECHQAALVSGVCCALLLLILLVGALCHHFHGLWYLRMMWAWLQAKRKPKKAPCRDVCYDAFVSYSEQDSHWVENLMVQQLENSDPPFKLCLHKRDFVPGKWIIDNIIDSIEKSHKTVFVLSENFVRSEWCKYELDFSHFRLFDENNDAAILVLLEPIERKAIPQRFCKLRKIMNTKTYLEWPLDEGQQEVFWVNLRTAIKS
T1 sequence (Q9EPQ1 25-795 limits assumed): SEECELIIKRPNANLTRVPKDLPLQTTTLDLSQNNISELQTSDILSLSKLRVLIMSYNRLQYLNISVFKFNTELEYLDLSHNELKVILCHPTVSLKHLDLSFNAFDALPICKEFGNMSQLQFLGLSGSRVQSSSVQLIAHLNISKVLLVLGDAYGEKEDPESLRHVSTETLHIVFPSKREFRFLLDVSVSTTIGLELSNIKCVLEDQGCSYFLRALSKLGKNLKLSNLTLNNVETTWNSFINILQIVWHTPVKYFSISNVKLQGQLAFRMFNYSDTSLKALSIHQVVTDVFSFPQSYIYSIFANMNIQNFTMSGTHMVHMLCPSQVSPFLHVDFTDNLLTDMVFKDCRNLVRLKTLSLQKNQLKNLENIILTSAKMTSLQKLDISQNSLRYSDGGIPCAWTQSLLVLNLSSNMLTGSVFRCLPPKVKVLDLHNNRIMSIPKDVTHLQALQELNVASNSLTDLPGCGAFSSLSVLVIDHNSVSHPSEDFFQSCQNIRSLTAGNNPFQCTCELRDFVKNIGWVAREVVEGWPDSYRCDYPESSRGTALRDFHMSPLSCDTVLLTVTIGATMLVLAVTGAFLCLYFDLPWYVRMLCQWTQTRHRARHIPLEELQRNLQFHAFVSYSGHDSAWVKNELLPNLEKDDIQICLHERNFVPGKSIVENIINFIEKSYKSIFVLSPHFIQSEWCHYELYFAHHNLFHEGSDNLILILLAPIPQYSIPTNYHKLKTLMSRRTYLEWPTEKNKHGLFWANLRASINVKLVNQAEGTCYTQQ

Pam3CSK4: the immunostimulatory activity entry at TLR-2 is listed as “partially retained”.

`Nc1nc2c(ncn2[C@@H]2O[C@@H]3COP(=O)(O)O[C@H]4[C@@H](O)[C@H](n5cnc6c(N)ncnc65)O[C@@H]4COP(=O)(O)O[C@@H]2[C@@H]3O)c(=O)[nH]1` [cGAMP, cyclic guanosine monophosphate-adenosine monophosphate]: the encapsulation efficiency in data set [1] is 38±3%.

Values taken from patent US10696985B1, “Reversibly crosslinked endosomolytic polymer vesicles for cytosolic drug delivery” (Vanderbilt University, priority 2016, dated 2020).
